The numbers were not newly measured in US10166194B2, “Hydrocortisone controlled release formulation” (Diurnal Limited, priority 2012, dated 2019), which cites them from elsewhere.

`C[C@]12CCC(=O)C=C1CC[C@@H]1[C@@H]2[C@@H](O)C[C@@]2(C)[C@H]1CC[C@]2(O)C(=O)CO` [Hydrocortisone]: the half-life result is on record as “ca. 3 hours”.
